What was measured:
[1] = system: E. coli PQ37; type: cell-based; conditions: iridoid at 250 ug plus 1.25 ug mL^−1 4NQO; blank = 1
Method: The SOS-chromotest in E. coli PQ37 was used to determine the potential for iridoids in noni fruit from French Polynesia to prevent primary DNA damage. E coli PQ37 was incubated at 37° C. in the presence of deacetylasperulosidic acid and asperulosidic acid at a concentration of 250 ug in a 96-well plate. Replicate samples were evaluated. […] Following incubation with the samples, 5-bromo-4-chloro-3-indolyl-β-D-galactopyranoside was added to the wells to detect β-galactosidase enzyme activity, which is induced during SOS repair of damaged DNA. The samples were again incubated for 90 minutes and the absorbances of the samples, blank and positive control were measured at 620 nm with a microplate reader. The β-galactosidase enzyme activity induction factor of each material was calculated by dividing the absorbance of the sample at 620 nm by that of the blank, while also correcting for cell viability.

[2] = system: E. coli PQ37; assay: Anti-genotoxicity test (SOS-chromotest with 4NQO); type: cell-based; conditions: 250 μg mL^−1 iridoid plus 1.25 μg 4NQO, compared with vehicle blank
Method: The primary DNA damage test was performed again, similar to the method described above. […] Induction factors were calculated in the same manner as described above.

[3] = Thermal stability of DAA under pasteurization conditions (HPLC); type: physicochemical; conditions: 90° C. at pH 3.3 for one minute
Method: Tahitian noni fruit puree as used in this example is the mashed whole fruit, excluding seeds and pericarp. The fruits were originally collected from the Tahitian Islands. One gram of the puree was diluted with 5 mL of H2O-MeOH (1:1) and mixed thoroughly. The solution was then filtered through a nylon microfilter (0.45-μm pore size); the solution was collected into a 5 mL volumetric flask for HPLC analysis. Four batches of noni puree were analyzed in the experiments. Voucher specimens of the noni fruit puree are deposited in our lab. To test iridoid stability, a DAA solution of 0.5 mg/mL was prepared with MeOH. This solution was heated in a water-bath at 90° C. for 1 min, cooled to room temperature, and analyzed by HPLC.
Noni fruit juice is usually subjected to heat pasteurization during commercial processing. Pasteurization is usually employed in noni industry, i.e., heating up to 87.7° C. for several seconds. In this study, the stability of DAA was conducted. DAA was exposed to 90° C. at pH 3.3 for one minute to determine its thermal stability at acidic conditions.

CC(=O)OCC1=C[C@H](O)[C@@H]2C(C(=O)O)=CO[C@@H](O[C@@H]3O[C@H](CO)[C@@H](O)[C@H](O)[C@H]3O)[C@H]12 [AA, asperulosidic acid]
β-galactosidase enzyme activity induction factor (mean±standard deviation) [1]: 1.04±0.01
induction factors of 4NQO plus DAA or AA [2]: no statistical difference from that of the vehicle blank

O=C(O)C1=CO[C@@H](O[C@@H]2O[C@H](CO)[C@@H](O)[C@H](O)[C@H]2O)[C@@H]2C(CO)=C[C@H](O)[C@H]12 [DAA, deacetylasperulosidic acid]
thermal stability (DAA contents before and after heating) [3]: no difference in the DAA contents before and after heating
β-galactosidase enzyme activity induction factor (mean±standard deviation) [1]: 0.98±0.02
induction factors of 4NQO plus DAA or AA [2]: no statistical difference from that of the vehicle blank
